How the values were obtained:
[1] = test system: H. pylori bacteria (ATCC 43504); assay: H. pylori bacteria-proliferation inhibitory effect under in vitro (OD values at 600 nm); format: cell-based, Helicobacter pylori
[2] = test system: H. pylori bacteria (ATCC 43504 strain); assay: Count of viable H. pylori bacteria (colony count) from stomach of orally infected meriones unguiculatus; format: in vivo
From the text: Antibacterial activities of GlcNAc derivatives towards H. pylori bacteria were investigated under in vivo by an experimental system using meriones unguiclatus infected orally with H. pylori bacteria.
Type strain of H. pylori bacteria (ATCC 43504 strain) was used as strain for infection. After stock strain thereof was recovered in Brain Heart Infusion (BHI) culture medium, which is available from Nissui Pharmaceutical Co., Ltd., including 10% horse serum, which is available from Dainippon Sumitomo Pharma Co., Ltd., and then cultured in the culture medium at 37° C. under microaerophilic condition using a microaerophilic incubator for 3 days. Finally the concentration thereof was adjusted to approximately 5×10^6 colony-forming-unit/mL (CFU/mL).
The meriones unguiculatus were fasted from 24 hours earlier of infection of Helicobacter pylori bacteria to 4 hours later of the infection thereof.
Approximately 1.0 mL of the liquid culture medium including Helicobacter pylori bacteria was administrated orally as 5×10^6 CFU/individual-animal to the fasted meriones unguiculatus. The day of infection was defined as initial day (i.e. Day 0)
Specimens prepared by using GlcNAcl-beta-O-Et of N-acetyl-glucosamine derivative according to following concentration of each group were administered.
Number of animal: 10 animals per one group
Means for administration: dietary administration
Stomach was respectively isolated from thus 10 animals of each group, and added into a centrifuging tube containing 5 mL of a phosphate buffer solution (PBS) to be homogenized with Polytron Homogenizer. 0.1 mL of the obtained homogenate was spread on Poamedia Vi Helico-S agar medium which is available from Eiken Chemical Co., Ltd. And then the bacterium were cultured at 37° C. under microaerophilic condition as same as above-mentioned incubation for culture. The formed violet colonies were counted.
They were carried out by above-mentioned statistical procedure.

[3] = Body weight and general remarks of symptoms of infected meriones unguiculatus under dietary administration
Procedure: 4 weeks-old male meriones unguiculatus (SPF: specific-pathogen free), which were purchased from Kyudo Co., Ltd. (Br. Yoshitomi), were preliminarily reared for 23 days and then used for the experiments. The meriones unguiculatus were reared temperature of 24 plus or minus 3° C. and under relative humidity of 55 plus or minus 15% in all room for infected animals with conditions of lighting from a.m. 7 to p.m. 7 and ventilating 18 times per hour during preliminarily reared period and experiment period. 2 or 3 meriones unguiculatus were reared in a cage. All meriones unguiculates could freely get purified water as drinkable water and powdery feed MF as dry feed which is available from Oriental Yeast Co., Ltd. Incidentally the meriones unguiculatus were marked by application of dyestuff of picric acid solution for individual discrimination.
Amount of administration: 0.3% of the specimen blended with the powdery feed
The day of infection was defined as day 0. At 1st, 3rd, 6th, 10th, 13th, 17th, 20th, 24th, and 26th days, body weight was measured by a weight scale respectively.
Daily variance of the general remarks of symptoms thereof was observed.
As regards to body weight and count of colonies, average plus/minus standard error thereof in all groups was respectively calculated. […]

[4] = format: physicochemical
Procedure: […]-beta-O-Et in a defined constant amount of the H. pylori bacteria-containing culture medium, which was cultured for 3 days, was measured by high performance liquid chromatography. A concentration of […]-beta-O-Et therein was determined by conversion using a calibration curve which was beforehand prepared from various definite concentrations of standard […]-beta-O-Et and peak areas of high pressure liquid chromatogram thereof. According to the determination, 6% of […]-beta-O-Et in the defined constant amount of the H. pylori bacteria-containing culture medium was reduced in comparison with initial concentration thereof. Consequently it was obvious that 6% of […]-beta-O-Et in the H. pylori bacteria-containing culture medium was decomposed to GlcNAc and ethanol (EtOH).

CC(=O)N[C@H]1C(O)O[C@H](CO)[C@@H](O)[C@@H]1O (stereo partly drawn) [GlcNAc, N-acetyl-glucosamine, reference compound]
proliferation inhibitory effect ([1]; concentration as high as 50 mM, FIG. 2): does not show any proliferation inhibitory effect

CCO[C@H]1O[C@H](CO)[C@@H](O)[C@H](O)[C@H]1NC(C)=O [GlcNAcl-alpha-O-Et]
statistical significant difference of the count of viable bacteria vs control group ([2]; 300 mg/kg/day, FIG. 8): not observed at all | count of H. pylori bacteria reduced in comparison with the control group ([2]; 1000 mg/kg/day, FIG. 8): ⅓ | statistical significant difference of the count of viable bacteria vs control group ([2]; 1000 mg/kg/day, FIG. 8): eventually observed | effect on inhibiting the proliferation of H. pylori bacteria under in vitro ([1]; in comparison with GlcNAcl-beta-O-Et, FIG. 6): did not almost indicate the effect

CCO[C@@H]1O[C@H](CO)[C@@H](O)[C@H](O)[C@H]1NC(C)=O [GlcNAcl-beta-O-Et, Ethoxy-2-acetamide-2-deoxy-N-acetyl-beta-D-glucosaminide]
statistical significant difference of the body weight increase vs control group ([3]; 300 mg/kg/day dietary administration (0.3% in feed), to day 26, FIG. 4): not observed | abnormal general remarks of symptoms ([3]; 300 mg/kg/day dietary administration, daily observation): could not be observed | count of H. pylori bacteria reduced in comparison with the control group ([2]; 300 mg/kg/day dietary, all individuals, FIG. 5(a)): ½ to ⅓ | count of H. pylori bacteria reduced in comparison with the control group ([2]; 300 mg/kg/day dietary, outliers rejected by Smirnov-Grubbs test, FIG. 5(b)): ⅙ | proliferation ability of H. pylori bacteria ([1]; culture medium containing not less than 5 mM): not more than 50% | proliferation ability of H. pylori bacteria ([1]; culture medium containing not less than 20 mM): not more than 5% | H. pylori bacteria proliferation inhibited ([1]; not less than 25 or 50 mM, cultivation 96 hours, vs negative control, FIG. 1): not less than 50% | stability in the culture medium [4]: stable | reduction of concentration in comparison with initial concentration (decomposed to GlcNAc and ethanol) ([4]; H. pylori bacteria-containing culture medium cultured for 3 days, HPLC): 6%

CCO [ethanol, reference compound]
proliferation inhibitory effect ([1]; 5 volume % (856 mM), FIG. 3): shows proliferation inhibitory effect barely

Reference: patent US8859511B2, “Proliferation inhibitor of Helicobacter pylori bacteria” (The Noguchi Institute, priority 2008, dated 2014)
